Reference: US6586434B2, “Method for the preparation of tetrahydrobenzothiepines” (G.D. Searle, LLC, priority 2000, dated 2003)

Test: Water uptake experiments (Dynamic Vapor Sorption, water sorption/desorption isotherms)
Assay type: physicochemical
Conditions: for Desorptoin % Weight Change: reverse stepwise RH decrease; for Sorption % Weight Change: stepwise RH increase
Description: Water sorption experiments are performed on a Dynamic Vapor Sorption (DVS) apparatus (DVS-1000 manufactured by Surface Measurements Systems, Inc.). Experiments are performed at 25° C. by initially drying the material of interest (about 10 mg sample) from 30% relative humidity (RH) (ambient room condition) to about 9% RH in a stepwise fashion (10% RH step) by purging with dry nitrogen until no further weight change was observed. The samples are then exposed to a stepwise (10% RH steps) increase in RH from about 0 to about 90% RH. Each successive step is initiated when the change in weight over time at the relative humidity was less than 0.0003% ((dm/dt)/m0×100, where m is mass in mg, m0 is initial mass, and t is time in minutes). The sample is then taken through the reverse of the stepwise % RH increase. The data are collected on a computer and analyzed using SMS' proprietary MS-Excel macro interface software.

SMILES: CCCCC1(CCCC)CS(=O)(=O)c2ccc(N(C)C)cc2[C@@H](c2ccc(OCc3ccc(C[N+]45CCN(CC4)CC5)cc3)cc2)[C@H]1O.[Cl-] [Form I, (4R,5R)-1-((4-(4-(3,3-dibutyl-7-(dimethylamino)-2,3,4,5-tetrahydro-4-hydroxy-1,1-dioxido-1-benzithiepin-5-yl)phenoxy)methyl)phenyl)methyl-4-aza-1-azoniabicyclo[2.2.2]octane chloride]
- Desorptoin % Weight Change (0.45 % RH at 25° C.): 0.057%
- Sorption % Weight Change (0.45 % RH at 25° C.): 0.057%
- Desorptoin % Weight Change (9.2 % RH at 25° C.): 0.997%
- Sorption % Weight Change (9.2 % RH at 25° C.): 0.9575%
- Desorptoin % Weight Change (20.05 % RH at 25° C.): 2.1025%
- Sorption % Weight Change (20.05 % RH at 25° C.): 2.016%
- Desorptoin % Weight Change (29.75 % RH at 25° C.): 3.599%
- Sorption % Weight Change (29.75 % RH at 25° C.): 3.4105%
- Desorptoin % Weight Change (39.4 % RH at 25° C.): 4.743%
- Sorption % Weight Change (39.4 % RH at 25° C.): 4.282%
- Desorptoin % Weight Change (49.55 % RH at 25° C.): 5.321%
- Sorption % Weight Change (49.55 % RH at 25° C.): 4.928%
- Desorptoin % Weight Change (59.4 % RH at 25° C.): 5.726%
- Sorption % Weight Change (59.4 % RH at 25° C.): 5.356%
- Desorptoin % Weight Change (69.05 % RH at 25° C.): 6.054%
- Sorption % Weight Change (69.05 % RH at 25° C.): 5.706%
- Desorptoin % Weight Change (78.8 % RH at 25° C.): 6.357%
- Sorption % Weight Change (78.8 % RH at 25° C.): 6.109%
- Desorptoin % Weight Change (88.5 % RH at 25° C.): 6.734%
- Sorption % Weight Change (88.5 % RH at 25° C.): 6.734%

SMILES: CCCCC1(CCCC)CS(=O)(=O)c2ccc(N(C)C)cc2[C@@H](c2ccc(OCc3ccc(C[N+]45CCN(CC4)CC5)cc3)cc2)[C@H]1O.[Cl-] [Form II, (4R,5R)-1-((4-(4-(3,3-dibutyl-7-(dimethylamino)-2,3,4,5-tetrahydro-4-hydroxy-1,1-dioxido-1-benzithiepin-5-yl)phenoxy)methyl)phenyl)methyl-4-aza-1-azoniabicyclo[2.2.2]octane chloride]
- Desorptoin % Weight Change (1.3 % RH at 25° C.): −0.02695%
- Sorption % Weight Change (1.3 % RH at 25° C.): −0.02695%
- Desorptoin % Weight Change (9.35 % RH at 25° C.): 0.04235%
- Sorption % Weight Change (9.35 % RH at 25° C.): 0.04715%
- Desorptoin % Weight Change (20.25 % RH at 25° C.): 0.09715%
- Sorption % Weight Change (20.25 % RH at 25° C.): 0.1058%
- Desorptoin % Weight Change (29.75 % RH at 25° C.): 0.1444%
- Sorption % Weight Change (29.75 % RH at 25° C.): 0.1376%
- Desorptoin % Weight Change (39.55 % RH at 25° C.): 0.1866%
- Sorption % Weight Change (39.55 % RH at 25° C.): 0.1809%
- Desorptoin % Weight Change (49.7 % RH at 25° C.): 0.2636%
- Sorption % Weight Change (49.7 % RH at 25° C.): 0.2386%
- Desorptoin % Weight Change (59.5 % RH at 25° C.): 0.331%
- Sorption % Weight Change (59.5 % RH at 25° C.): 0.304%
- Desorptoin % Weight Change (69.1 % RH at 25° C.): 0.3983%
- Sorption % Weight Change (69.1 % RH at 25° C.): 0.3945%
- Desorptoin % Weight Change (78.65 % RH at 25° C.): 0.4849%
- Sorption % Weight Change (78.65 % RH at 25° C.): 0.4695%
- Desorptoin % Weight Change (88.5 % RH at 25° C.): 0.6446%
- Sorption % Weight Change (88.5 % RH at 25° C.): 0.6446%
- weight gain of dry sample (of its own weight) when equilibrated under humid air (dry sample equilibrated under 80% relative humidity (RH) air at 25° C.): less than 1%
- hygroscopicity (dry sample, 80% RH air at 25° C.): essentially nonhygroscopic
